# Measurements published in ChEMBL document CHEMBL4507259 (2021).
# What was measured:
# [1] = biological target: Delta-type opioid receptor (Homo sapiens) (UniProt P41143); assay: delta (DOP) (h) CEREP ligand profiling; details: filed as agonist, Compound concentration 10.0 uM
# [2] = biological target: Cyclin-dependent kinase 4 (Homo sapiens) (UniProt P11802); details: Compound concentration 1000.0 nM
# [3] = biological target: Casein kinase I isoform delta (Homo sapiens) (UniProt P48730); details: Compound concentration 1000.0 nM
# [4] = biological target: Death-associated protein kinase 3 (Homo sapiens) (UniProt O43293); details: Compound concentration 1000.0 nM
# [5] = biological target: Serine/threonine-protein kinase Nek1 (Homo sapiens) (UniProt Q96PY6); details: Compound concentration 1000.0 nM
# [6] = system: Phosphatidylinositol 4,5-bisphosphate 3-kinase catalytic subunit alpha isoform (Homo sapiens), P42336 [H1047Y]; details: Compound concentration 1000.0 nM
# [7] = biological target: Serine/threonine-protein kinase LATS1 (Homo sapiens) (UniProt O95835); details: Compound concentration 1000.0 nM
# [8] = biological target: Serine/threonine-protein kinase Nek6 (Homo sapiens) (UniProt Q9HC98); details: Compound concentration 1000.0 nM
# [9] = biological target: Receptor tyrosine-protein kinase erbB-4 (Homo sapiens) (UniProt Q15303); details: Compound concentration 1000.0 nM
# [10] = biological target: Alpha-1D adrenergic receptor (Homo sapiens) (UniProt P25100); details: Compound concentration 10.0 uM
# [11] = biological target: Ca2+ channel (L, diltiazem site) (benzothiazepines); voltage-gated L-type calcium channel (family) (Homo sapiens, UniProt O60840+Q01668+Q13698+Q13936); assay: Ca2+ channel (L, diltiazem site) (benzothiazepines) CEREP ligand profiling; type: protein assay; details: compound concentration 10 uM
# [12] = biological target: Serine/threonine-protein kinase 10 (Homo sapiens) (UniProt O94804); details: Compound concentration 1000.0 nM
# [13] = biological target: Tyrosine-protein kinase Fgr (Homo sapiens) (UniProt P09769); details: Compound concentration 1000.0 nM
# [14] = biological target: Phosphatidylinositol 4,5-bisphosphate 3-kinase catalytic subunit gamma isoform (Homo sapiens) (UniProt P48736); details: Compound concentration 1000.0 nM
# [15] = biological target: Serine/threonine-protein kinase 32A (Homo sapiens) (UniProt Q8WU08); details: Compound concentration 1000.0 nM
# [16] = biological target: MAP kinase-interacting serine/threonine-protein kinase 1 (Homo sapiens) (UniProt Q9BUB5); details: Compound concentration 1000.0 nM
# Chain of MAP kinase-interacting serine/threonine-protein kinase 1 (Homo sapiens) (Q9BUB5 whole entry, looked up): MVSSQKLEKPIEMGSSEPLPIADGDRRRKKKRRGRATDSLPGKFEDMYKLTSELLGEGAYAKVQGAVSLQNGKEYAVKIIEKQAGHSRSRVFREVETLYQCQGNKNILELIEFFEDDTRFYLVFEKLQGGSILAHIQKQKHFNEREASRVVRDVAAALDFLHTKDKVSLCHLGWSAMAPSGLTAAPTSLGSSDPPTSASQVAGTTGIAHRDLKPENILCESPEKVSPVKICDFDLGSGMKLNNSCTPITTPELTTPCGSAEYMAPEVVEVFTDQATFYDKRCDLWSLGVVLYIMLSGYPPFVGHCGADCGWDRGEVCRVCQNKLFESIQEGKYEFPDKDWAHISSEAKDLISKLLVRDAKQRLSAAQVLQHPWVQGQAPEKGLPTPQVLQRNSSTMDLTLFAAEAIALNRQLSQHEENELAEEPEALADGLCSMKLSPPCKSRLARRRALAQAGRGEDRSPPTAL
# [17] = biological target: Tyrosine-protein kinase Fer (Homo sapiens) (UniProt P16591); details: Compound concentration 1000.0 nM
# [18] = biological target: Insulin receptor-related protein (Homo sapiens) (UniProt P14616); details: Compound concentration 1000.0 nM
# [19] = biological target: Mitogen-activated protein kinase kinase kinase 20 (Homo sapiens) (UniProt Q9NYL2); details: Compound concentration 1000.0 nM
# [20] = biological target: Serine/threonine-protein kinase 32C (Homo sapiens) (UniProt Q86UX6); details: Compound concentration 1000.0 nM
# [21] = biological target: Sodium-dependent dopamine transporter (Homo sapiens, UniProt Q01959); assay: dopamine transporter (h) CEREP ligand profiling; details: filed as antagonist, Compound concentration 10.0 uM
# [22] = biological target: 5-hydroxytryptamine receptor 4 (Homo sapiens) (UniProt Q13639); assay: 5-HT4e (h) CEREP ligand profiling; details: filed as antagonist, Compound concentration 10.0 uM
# Chain of 5-hydroxytryptamine receptor 4 (Homo sapiens) (Q13639 whole entry): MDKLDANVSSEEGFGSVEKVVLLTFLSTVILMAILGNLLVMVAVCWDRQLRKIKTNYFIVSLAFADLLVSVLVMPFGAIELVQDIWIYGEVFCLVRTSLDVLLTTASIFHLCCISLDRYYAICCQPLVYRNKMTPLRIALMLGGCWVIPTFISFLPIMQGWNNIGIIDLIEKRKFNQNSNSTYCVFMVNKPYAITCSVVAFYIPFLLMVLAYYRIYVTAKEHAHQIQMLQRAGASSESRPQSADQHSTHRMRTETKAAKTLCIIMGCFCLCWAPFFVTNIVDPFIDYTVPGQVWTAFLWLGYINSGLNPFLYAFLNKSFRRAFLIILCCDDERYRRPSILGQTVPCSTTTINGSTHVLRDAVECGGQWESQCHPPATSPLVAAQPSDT
# [23] = biological target: Uncharacterized serine/threonine-protein kinase SBK3 (Homo sapiens) (UniProt P0C264); details: Compound concentration 1000.0 nM
# [24] = biological target: Cyclin-dependent kinase 7 (Homo sapiens) (UniProt P50613); details: Compound concentration 1000.0 nM
# Chain of Cyclin-dependent kinase 7 (Homo sapiens) (P50613 whole entry): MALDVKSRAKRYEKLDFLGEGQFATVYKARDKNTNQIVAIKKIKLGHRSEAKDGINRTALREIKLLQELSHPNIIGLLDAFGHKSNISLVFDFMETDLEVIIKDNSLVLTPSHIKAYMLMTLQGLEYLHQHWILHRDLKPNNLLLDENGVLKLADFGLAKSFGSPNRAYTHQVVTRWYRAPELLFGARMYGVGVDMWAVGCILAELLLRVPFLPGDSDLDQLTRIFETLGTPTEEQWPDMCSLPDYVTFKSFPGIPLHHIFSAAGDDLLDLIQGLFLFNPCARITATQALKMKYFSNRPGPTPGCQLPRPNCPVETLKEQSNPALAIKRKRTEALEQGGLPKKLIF
# [25] = biological target: Serine/threonine-protein kinase Sgk1 (Homo sapiens) (UniProt O00141); details: Compound concentration 1000.0 nM
# [26] = biological target: D(1B) dopamine receptor (Homo sapiens) (UniProt P21918); details: Compound concentration 10.0 uM
# [27] = biological target: Rhodopsin kinase GRK1 (Homo sapiens) (UniProt Q15835); details: Compound concentration 1000.0 nM
# [28] = biological target: Testis-specific serine/threonine-protein kinase 3 (Homo sapiens) (UniProt Q96PN8); details: Compound concentration 1000.0 nM
# [29] = biological target: Mitogen-activated protein kinase 8 (Homo sapiens) (UniProt P45983); details: Compound concentration 1000.0 nM
# [30] = biological target: Tyrosine-protein kinase Lyn (Homo sapiens) (UniProt P07948); details: Compound concentration 1000.0 nM
# Chain of Tyrosine-protein kinase Lyn (Homo sapiens) (P07948 2-512 limits assumed): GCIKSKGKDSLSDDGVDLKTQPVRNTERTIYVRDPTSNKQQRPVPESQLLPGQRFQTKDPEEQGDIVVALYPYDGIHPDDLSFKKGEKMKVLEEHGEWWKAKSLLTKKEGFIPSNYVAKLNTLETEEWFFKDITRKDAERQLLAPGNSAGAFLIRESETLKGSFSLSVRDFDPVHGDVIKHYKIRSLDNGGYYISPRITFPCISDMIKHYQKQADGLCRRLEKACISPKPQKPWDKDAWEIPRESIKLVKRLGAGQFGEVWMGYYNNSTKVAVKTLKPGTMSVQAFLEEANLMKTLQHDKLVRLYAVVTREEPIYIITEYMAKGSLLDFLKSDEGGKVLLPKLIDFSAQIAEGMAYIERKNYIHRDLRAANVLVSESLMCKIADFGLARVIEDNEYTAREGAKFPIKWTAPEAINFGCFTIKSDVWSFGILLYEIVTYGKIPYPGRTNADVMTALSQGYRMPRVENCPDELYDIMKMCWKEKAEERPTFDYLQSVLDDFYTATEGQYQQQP
# [31] = biological target: Fibroblast growth factor receptor 2 (Homo sapiens) (UniProt P21802); details: Compound concentration 1000.0 nM
# Chain of Fibroblast growth factor receptor 2 (Homo sapiens) (P21802 22-821 limits assumed): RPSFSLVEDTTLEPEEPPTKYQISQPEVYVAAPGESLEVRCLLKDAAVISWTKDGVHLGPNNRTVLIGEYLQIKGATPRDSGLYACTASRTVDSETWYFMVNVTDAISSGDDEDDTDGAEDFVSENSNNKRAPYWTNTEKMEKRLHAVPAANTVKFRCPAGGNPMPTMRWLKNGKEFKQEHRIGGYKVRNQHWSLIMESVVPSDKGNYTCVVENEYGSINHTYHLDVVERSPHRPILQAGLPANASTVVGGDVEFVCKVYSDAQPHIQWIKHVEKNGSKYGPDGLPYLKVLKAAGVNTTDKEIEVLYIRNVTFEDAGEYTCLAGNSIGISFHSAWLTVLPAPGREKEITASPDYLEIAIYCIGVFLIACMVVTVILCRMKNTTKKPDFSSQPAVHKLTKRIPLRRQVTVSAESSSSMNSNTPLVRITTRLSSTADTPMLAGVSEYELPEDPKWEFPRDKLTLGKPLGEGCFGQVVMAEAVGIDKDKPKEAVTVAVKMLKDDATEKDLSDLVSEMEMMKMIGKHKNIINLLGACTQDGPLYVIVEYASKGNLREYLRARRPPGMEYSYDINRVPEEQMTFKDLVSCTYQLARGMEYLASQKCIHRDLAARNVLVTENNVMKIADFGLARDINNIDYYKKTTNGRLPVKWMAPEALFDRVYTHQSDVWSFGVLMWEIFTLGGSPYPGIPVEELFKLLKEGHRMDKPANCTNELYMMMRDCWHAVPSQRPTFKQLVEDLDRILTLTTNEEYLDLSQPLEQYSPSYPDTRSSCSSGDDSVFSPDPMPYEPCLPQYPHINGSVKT
# [32] = biological target: Receptor tyrosine-protein kinase erbB-2 (Homo sapiens) (UniProt P04626); details: Compound concentration 1000.0 nM
# Chain of Receptor tyrosine-protein kinase erbB-2 (Homo sapiens) (P04626 whole entry): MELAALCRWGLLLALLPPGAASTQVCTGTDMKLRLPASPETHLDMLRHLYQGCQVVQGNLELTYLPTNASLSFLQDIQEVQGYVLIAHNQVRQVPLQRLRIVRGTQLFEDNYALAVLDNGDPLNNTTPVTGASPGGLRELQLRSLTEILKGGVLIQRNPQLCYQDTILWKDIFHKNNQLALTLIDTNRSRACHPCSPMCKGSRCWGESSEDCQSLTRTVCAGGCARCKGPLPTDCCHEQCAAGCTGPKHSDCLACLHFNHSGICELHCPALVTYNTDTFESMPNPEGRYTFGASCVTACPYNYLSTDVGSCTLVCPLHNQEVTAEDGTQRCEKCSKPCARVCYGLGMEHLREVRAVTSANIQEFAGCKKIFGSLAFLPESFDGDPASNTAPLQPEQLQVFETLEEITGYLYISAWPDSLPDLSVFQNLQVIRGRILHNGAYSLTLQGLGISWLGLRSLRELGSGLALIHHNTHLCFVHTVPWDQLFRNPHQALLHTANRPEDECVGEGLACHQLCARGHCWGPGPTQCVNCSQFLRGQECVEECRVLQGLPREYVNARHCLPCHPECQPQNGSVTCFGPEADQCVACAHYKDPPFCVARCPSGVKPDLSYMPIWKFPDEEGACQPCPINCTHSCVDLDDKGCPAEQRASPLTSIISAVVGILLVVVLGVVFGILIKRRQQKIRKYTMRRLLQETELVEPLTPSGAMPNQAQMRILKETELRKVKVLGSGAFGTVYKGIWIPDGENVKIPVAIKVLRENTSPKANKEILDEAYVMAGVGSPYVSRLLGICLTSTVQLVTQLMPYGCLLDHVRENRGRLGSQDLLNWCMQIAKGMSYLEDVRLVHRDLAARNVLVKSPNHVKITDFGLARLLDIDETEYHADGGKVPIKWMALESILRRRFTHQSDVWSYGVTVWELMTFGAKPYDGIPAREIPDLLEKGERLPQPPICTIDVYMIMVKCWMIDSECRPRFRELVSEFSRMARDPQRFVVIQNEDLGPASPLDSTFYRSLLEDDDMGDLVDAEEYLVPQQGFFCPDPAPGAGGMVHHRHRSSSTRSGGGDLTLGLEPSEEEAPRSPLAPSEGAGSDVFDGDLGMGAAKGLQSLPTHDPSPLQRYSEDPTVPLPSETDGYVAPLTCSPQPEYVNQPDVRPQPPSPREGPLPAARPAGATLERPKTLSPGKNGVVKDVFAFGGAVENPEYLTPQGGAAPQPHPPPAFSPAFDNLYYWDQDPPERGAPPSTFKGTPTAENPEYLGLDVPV
# [33] = biological target: Activin receptor type-1B (Homo sapiens) (UniProt P36896); details: Compound concentration 1000.0 nM
# Chain of Activin receptor type-1B (Homo sapiens) (P36896 whole entry): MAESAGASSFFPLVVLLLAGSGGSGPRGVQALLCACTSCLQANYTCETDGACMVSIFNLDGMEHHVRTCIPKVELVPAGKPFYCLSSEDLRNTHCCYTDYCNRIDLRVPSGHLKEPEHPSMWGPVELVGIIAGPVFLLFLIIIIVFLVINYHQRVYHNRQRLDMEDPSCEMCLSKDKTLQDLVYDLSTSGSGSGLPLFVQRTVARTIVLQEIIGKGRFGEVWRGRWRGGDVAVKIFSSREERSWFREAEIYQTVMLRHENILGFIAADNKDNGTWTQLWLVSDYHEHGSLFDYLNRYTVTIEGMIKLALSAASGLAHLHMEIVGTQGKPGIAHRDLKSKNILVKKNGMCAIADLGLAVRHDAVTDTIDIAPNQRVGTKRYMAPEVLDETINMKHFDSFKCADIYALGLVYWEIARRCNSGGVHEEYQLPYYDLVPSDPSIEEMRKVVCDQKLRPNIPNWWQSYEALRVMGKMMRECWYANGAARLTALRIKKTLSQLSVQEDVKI
# [34] = biological target: Serine/threonine-protein kinase TBK1 (Homo sapiens) (UniProt Q9UHD2); details: Compound concentration 1000.0 nM
# [35] = biological target: Myosin-IIIa (Homo sapiens) (UniProt Q8NEV4); details: Compound concentration 1000.0 nM
# [36] = biological target: Mitogen-activated protein kinase kinase kinase 13 (Homo sapiens) (UniProt O43283); details: Compound concentration 1000.0 nM
# [37] = biological target: Histamine H3 receptor (Homo sapiens) (UniProt Q9Y5N1); details: Compound concentration 10.0 uM
# [38] = biological target: Dual specificity mitogen-activated protein kinase kinase 3 (Homo sapiens) (UniProt P46734); details: Compound concentration 1000.0 nM
# Chain of Dual specificity mitogen-activated protein kinase kinase 3 (Homo sapiens) (P46734 whole entry): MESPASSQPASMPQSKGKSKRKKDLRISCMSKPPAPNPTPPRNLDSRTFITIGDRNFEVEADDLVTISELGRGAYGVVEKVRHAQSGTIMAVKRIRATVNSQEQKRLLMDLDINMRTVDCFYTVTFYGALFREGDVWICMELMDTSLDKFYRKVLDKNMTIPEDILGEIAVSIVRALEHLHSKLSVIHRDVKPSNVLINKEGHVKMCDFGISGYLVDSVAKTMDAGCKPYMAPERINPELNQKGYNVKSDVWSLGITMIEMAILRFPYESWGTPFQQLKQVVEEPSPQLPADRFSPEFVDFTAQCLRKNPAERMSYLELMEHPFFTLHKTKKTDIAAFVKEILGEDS
# [39] = biological target: 5-hydroxytryptamine receptor 1B (Homo sapiens) (UniProt P28222); assay: 5-HT1B CEREP ligand profiling; details: filed as antagonist; Compound concentration 10.0 uM
# [40] = system: Tyrosine-protein kinase ABL1 (Homo sapiens), P00519 [H396P]; details: Compound concentration 1000.0 nM
# [41] = biological target: Ephrin type-A receptor 1 (Homo sapiens) (UniProt P21709); details: Compound concentration 1000.0 nM
# [42] = system: Phosphatidylinositol 4,5-bisphosphate 3-kinase catalytic subunit alpha isoform (Homo sapiens), P42336 [Q546K]; details: Compound concentration 1000.0 nM
# Chain of Cyclin-dependent kinase 4 (Homo sapiens) (P11802 whole entry, canonical isoform): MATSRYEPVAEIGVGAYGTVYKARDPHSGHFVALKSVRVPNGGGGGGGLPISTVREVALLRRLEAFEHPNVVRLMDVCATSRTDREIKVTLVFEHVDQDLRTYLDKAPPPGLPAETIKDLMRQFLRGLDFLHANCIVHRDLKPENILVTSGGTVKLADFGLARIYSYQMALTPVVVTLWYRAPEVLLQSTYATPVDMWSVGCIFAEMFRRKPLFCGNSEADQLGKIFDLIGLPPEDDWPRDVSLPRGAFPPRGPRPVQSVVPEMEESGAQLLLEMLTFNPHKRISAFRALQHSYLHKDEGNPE
structure (smiles),measurement,setting,value
CNC(=O)Nc1ccc2c(c1)CC[C@@]21OC(=O)N(CC(=O)N(Cc2ccc(F)cc2)[C@@H](C)C(F)(F)F)C1=O [A-485],inhibition,[1],11%
same,residual activity,[2],55%
same,residual activity,[3],99%
same,residual activity,[4],86%
same,residual activity,[5],100%
same,residual activity,[6],91%
same,residual activity,[7],60%
same,residual activity,[8],86%
same,residual activity,[9],100%
same,inhibition,[10],-1.58%
same,inhibition at 10 µM,[11],2% (not active)
same,residual activity,[12],100%
same,residual activity,[13],75%
same,residual activity,[14],95%
same,residual activity,[15],88%
same,residual activity,[16],67%
same,residual activity,[17],87%
same,residual activity,[18],96%
same,residual activity,[19],82%
same,residual activity,[20],88%
same,inhibition,[21],94%
same,inhibition,[22],10%
same,residual activity,[23],93%
same,residual activity,[24],78%
same,residual activity,[25],63%
same,inhibition,[26],21.1%
same,residual activity,[27],82%
same,residual activity,[28],88%
same,residual activity,[29],65%
same,residual activity,[30],89%
same,residual activity,[31],88%
same,residual activity,[32],100%
same,residual activity,[33],86%
same,residual activity,[34],83%
same,residual activity,[35],100%
same,residual activity,[36],68%
same,inhibition,[37],0.39%
same,residual activity,[38],71%
same,inhibition,[39],-6%
same,residual activity,[40],74%
same,residual activity,[41],88%
same,residual activity,[42],79%
CNC(=O)Nc1ccc2c(c1)[C@@]1(CC2)OC(=O)N(CC(=O)N(Cc2ccc(F)cc2)[C@@H](C)C(F)(F)F)C1=O [A-486],inhibition,[1],1%
same,residual activity,[2],73%
same,residual activity,[3],100%
same,residual activity,[4],100%
same,residual activity,[5],100%
same,residual activity,[6],100%
same,residual activity,[7],59%
same,residual activity,[8],100%
same,residual activity,[9],100%
same,inhibition,[10],9.73%
same,inhibition at 10 µM,[11],-5% (not active)
same,residual activity,[12],92%
same,residual activity,[13],88%
same,residual activity,[14],64%
same,residual activity,[15],100%
same,residual activity,[16],94%
same,residual activity,[17],79%
same,residual activity,[18],100%
same,residual activity,[19],93%
same,residual activity,[20],100%
same,inhibition,[21],27%
same,inhibition,[22],9%
same,residual activity,[23],100%
same,residual activity,[24],76%
same,residual activity,[25],54%
same,inhibition,[26],20.5%
same,residual activity,[27],73%
same,residual activity,[28],100%
same,residual activity,[29],71%
same,residual activity,[30],100%
same,residual activity,[31],87%
same,residual activity,[32],98%
same,residual activity,[33],100%
same,residual activity,[34],84%
same,residual activity,[35],100%
same,residual activity,[36],100%
same,inhibition,[37],13.2%
same,residual activity,[38],87%
same,inhibition,[39],-9%
same,residual activity,[40],83%
same,residual activity,[41],100%
same,residual activity,[42],81%
